Test results: patent publication US11629171B2, “Beta-hairpin peptidomimetics” (POLYPHOR AG, priority 2017, dated 2023)
≈ marks a conversion by molar mass, not a printed value. Where a SMILES comes first, the peptide text is derived from it. Bridges are numbered along the chain shown (N, C = ends). Roman numbers before positions name the chains, in order. [ ]: non-standard residue; d: D form. The star is where a group is joined. Tyrosinol = OC[C@H](Cc1ccc(O)cc1)N*; Thr(ol) = C[C@@H](O)[C@H](N)CO; pGlu = O=C1CC[C@@H](C(=O)O)N1; Tle = CC(C)(C)[C@H](N)C(=O)O; NMeV = CN[C@H](C(=O)O)C(C)C; Hiv = CC(C)[C@H](O)C(=O)O; dDab = NCC[C@@H](N)C(=O)O; hSer = N[C@@H](CCO)C(=O)O; NHCH(CH2OH)2 = OCC(CO)N*; Dab = NCC[C@H](N)C(=O)O; Dap = NC[C@H](N)C(=O)O

Tests used:
Format in all cases: cell-based
[1] = tested on: Acinetobacter baumannii 872842; conditions: 872842
Outline: (§1)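 Two-fold peptide dilutions in polysorbate 80-containing (0.002% final) cation-adjusted Mueller-Hinton II broth were inoculated with about 10^6 CFU/mL. The MIC was taken as the lowest concentration, in μg/mL, preventing visible growth at 18-20 hours and 35° C.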

[2] = tested on: Acinetobacter baumannii DSM 30008; conditions: DSM 30008
Outline: as §1

[3] = tested on: Enterobacter cloacae 848840; conditions: 848840
Outline: as §1

Escherichia coli 926415 = conditions: 926415
Outline: as §1

[4] = tested on: Escherichia coli ATCC 25922; conditions: ATCC 25922
Outline: as §1

[5] = tested on: Klebsiella pneumoniae 968733; conditions: 968733
Outline: as §1

[6] = tested on: Klebsiella pneumoniae SSI #3010; conditions: SSI #3010
Outline: as §1

[7] = tested on: Pseudomonas aeruginosa ATCC 27853; conditions: ATCC 27853
Outline: as §1

[8] = tested on: human red blood cells (hRBC); assay: Hemolysis; conditions: red cells of human, 1 h, 200
Outline: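 Percent hemolysis relative to 2% Triton X-100 (100%) and PBS/10% water (0%), from blank-corrected OD540 of diluted supernatants. Peptides tested at 200 μg/mL against 20% (v/v) washed human erythrocytes, 1 h, 37° C, shaking at 300 rpm.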

Structure (SMILES) | MIC [1] [µg/mL] | MIC [2] [µg/mL] | MIC [3] [µg/mL] | MIC (Escherichia coli 926415) [µg/mL] | MIC [4] [µg/mL] | MIC [5] [µg/mL] | MIC [6] [µg/mL] | MIC [7] [µg/mL] | Hemolysis at 200 μg/mL [8] [%] | Acinetobacter baumannii DSM 30008 MIC [2] [µg/mL] | Escherichia coli ATCC 25922 MIC [4] [µg/mL] | Klebsiella pneumoniae SSI #3010 MIC [6] [µg/mL] | Pseudomonas aeruginosa ATCC 27853 MIC [7] [µg/mL]
CN[C@H](C(=O)N[C@H](C(=O)N[C@@H](Cc1ccc(O)cc1)C(=O)N[C@H]1CSSC[C@@H](C(=O)N[C@H](C(=O)N[C@@H](CO)C(N)=O)C(C)C)NC(=O)[C@H](Cc2c[nH]c3ccccc23)NC(=O)[C@H](CCO)NC(=O)[C@@H](CCN)NC(=O)[C@H](CCC(=O)N[C@@H](CCN)C(=O)N[C@H](C(=O)N[C@@H](CCN)C(=O)N[C@H]2CCNC(=O)[C@H]([C@@H](C)O)NC(=O)[C@H](CCN)NC(=O)[C@H](CCN)NC(=O)[C@H](CC(C)C)NC(=O)[C@@H](CC(C)C)NC(=O)[C@H](CCN)NC2=O)[C@@H](C)O)NC1=O)[C@@H](C)O)C(C)C [Ex. 12] (I: H-[NMeV]TYCE[dDab][hSer]WCVS-NH2 / II: [Dab]T[Dab][Dab][Dab][dL]L[Dab][Dab]T; disulfide I:4-I:9; amide I:5-II:N; lactam II:4-II:C) | 1 (≈ 0.432 µM) | 0.125 (≈ 0.054 µM) | 0.5 (≈ 0.216 µM) | 1 (≈ 0.432 µM) | 0.0625 (≈ 0.027 µM) | 4 (≈ 1.73 µM) | 0.25 (≈ 0.108 µM) | 0.125 (≈ 0.054 µM) | 2 | – | – | – | –
CC(=O)N[C@H](C(=O)N[C@H]1CSSC[C@@H](C(=O)N[C@@H](CO)C(N)=O)NC(=O)[C@H](C(C)(C)C)NC(=O)[C@H](CCC(=O)O)NC(=O)[C@H](Cc2c[nH]c3ccccc23)NC(=O)[C@H](CO)NC(=O)[C@@H](CCN)NC(=O)[C@H](CCC(=O)N[C@@H](CCN)C(=O)N[C@H](C(=O)N[C@@H](CN)C(=O)N[C@H]2CCNC(=O)[C@H]([C@@H](C)O)NC(=O)[C@H](CCN)NC(=O)[C@H](CCN)NC(=O)[C@H](CC(C)C)NC(=O)[C@@H](CC(C)C)NC(=O)[C@H](CCN)NC2=O)[C@@H](C)O)NC(=O)[C@H](CCN)NC(=O)[C@H](Cc2ccc(O)cc2)NC1=O)C(C)C [Ex. 154] (I: Ac-VCY[Dab]E[dDab]SWE[Tle]CS-NH2 / II: [Dab]T[Dap][Dab][Dab][dL]L[Dab][Dab]T; disulfide I:2-I:11; amide I:5-II:N; lactam II:4-II:C) | 0.0625 (≈ 0.0255 µM) | 0.01562 (≈ 0.00636 µM) | 0.125 (≈ 0.0509 µM) | 0.125 (≈ 0.0509 µM) | 0.03125 (≈ 0.0127 µM) | 0.25 (≈ 0.102 µM) | 0.0625 (≈ 0.0255 µM) | 0.125 (≈ 0.0509 µM) | <1 | – | – | – | –
CC(C)C[C@@H]1NC(=O)[C@@H](CC(C)C)NC(=O)[C@H](CCN)NC(=O)[C@@H](NC(=O)[C@H](CCN)NC(=O)[C@@H](NC(=O)[C@H](CCN)NC(=O)CC[C@@H]2NC(=O)[C@H](CCN)NC(=O)[C@H]([C@@H](C)O)NC(=O)[C@@H](NC(=O)[C@@H](O)C(C)C)CSSC[C@@H](C(=O)N[C@H](CO)Cc3ccc(O)cc3)NC(=O)[C@H](C(C)(C)C)NC(=O)[C@H](CO)NC(=O)[C@H](Cc3c[nH]c4ccccc34)NC(=O)[C@H](CCO)NC(=O)[C@@H](CCN)NC2=O)[C@@H](C)O)CCNC(=O)[C@H]([C@@H](C)O)NC(=O)[C@H](CCN)NC(=O)[C@H](CCN)NC1=O [Ex. 93] (I: H-[Hiv]CT[Dab]E[dDab][hSer]WS[Tle]C-Tyrosinol / II: [Dab]T[Dab][Dab][Dab][dL]L[Dab][Dab]T; disulfide I:2-I:11; amide I:5-II:N; lactam II:4-II:C) | 0.5 (≈ 0.208 µM) | 0.25 (≈ 0.104 µM) | 0.25 (≈ 0.104 µM) | 0.25 (≈ 0.104 µM) | 0.125 (≈ 0.0521 µM) | 0.5 (≈ 0.208 µM) | 0.125 (≈ 0.0521 µM) | 0.25 (≈ 0.104 µM) | <1 | – | – | – | –
CC(=O)N[C@H](C(=O)N[C@H]1CSSC[C@@H](C(=O)N[C@@H](CO)C(N)=O)NC(=O)[C@H](C(C)C)NC(=O)[C@H](CCC(=O)O)NC(=O)[C@H](Cc2c[nH]c3ccccc23)NC(=O)[C@H](CO)NC(=O)[C@@H](CCN)NC(=O)[C@H](CCC(=O)N[C@@H](CCN)C(=O)N[C@H](C(=O)N[C@@H](CN)C(=O)N[C@H]2CCNC(=O)[C@H]([C@@H](C)O)NC(=O)[C@H](CCN)NC(=O)[C@H](CCN)NC(=O)[C@H](CC(C)C)NC(=O)[C@@H](CC(C)C)NC(=O)[C@H](CCN)NC2=O)[C@@H](C)O)NC(=O)[C@H](CCCCN)NC(=O)[C@H](Cc2ccc(O)cc2)NC1=O)C(C)C [Ex. 151] (I: Ac-VCYKE[dDab]SWEVCS-NH2 / II: [Dab]T[Dap][Dab][Dab][dL]L[Dab][Dab]T; disulfide I:2-I:11; amide I:5-II:N; lactam II:4-II:C) | 0.25 (≈ 0.101 µM) | 0.0625 (≈ 0.0253 µM) | 0.125 (≈ 0.0506 µM) | 0.5 (≈ 0.203 µM) | 0.03125 (≈ 0.0127 µM) | 1 (≈ 0.405 µM) | 0.0625 (≈ 0.0253 µM) | 0.125 (≈ 0.0506 µM) | <1 | – | – | – | –
CC(=O)N[C@H](C(=O)N[C@H]1CSSC[C@@H](C(=O)N[C@@H](CO)C(=O)N[C@@H](CC(=O)O)C(N)=O)NC(=O)[C@H](C(C)C)NC(=O)[C@H](CO)NC(=O)[C@H](Cc2c[nH]c3ccccc23)NC(=O)[C@H](CCN)NC(=O)[C@@H](CCN)NC(=O)[C@H](CCC(=O)N[C@@H](CCN)C(=O)N[C@H](C(=O)N[C@@H](CN)C(=O)N[C@H]2CCNC(=O)[C@H]([C@@H](C)O)NC(=O)[C@H](CCN)NC(=O)[C@H](CCN)NC(=O)[C@H](CC(C)C)NC(=O)[C@@H](CC(C)C)NC(=O)[C@H](CCN)NC2=O)[C@@H](C)O)NC(=O)[C@H](CO)NC(=O)[C@H](Cc2ccc(O)cc2)NC1=O)C(C)C [Ex. 371] (I: Ac-VCYSE[dDab][Dab]WSVCSD-NH2 / II: [Dab]T[Dap][Dab][Dab][dL]L[Dab][Dab]T; disulfide I:2-I:11; amide I:5-II:N; lactam II:4-II:C) | 0.0625 (≈ 0.0249 µM) | – | 0.5 (≈ 0.199 µM) | 0.25 (≈ 0.0994 µM) | – | 0.5 (≈ 0.199 µM) | – | – | 0 | 0.0625 | 0.0625 | 0.0625 | 0.0625
CC(=O)N[C@@H](Cc1ccc(O)cc1)C(=O)N[C@H]1CSSC[C@@H](C(=O)NC(CO)CO)NC(=O)[C@H](Cc2c[nH]c3ccccc23)NC(=O)[C@H](CO)NC(=O)[C@H](C(C)C)NC(=O)[C@H](CCO)NC(=O)[C@@H](CCN)NC(=O)[C@H](CCC(=O)N[C@@H](CCN)C(=O)N[C@H](C(=O)N[C@@H](CCN)C(=O)N[C@H]2CCNC(=O)[C@H]([C@@H](C)O)NC(=O)[C@H](CCN)NC(=O)[C@H](CCN)NC(=O)[C@H](CC(C)C)NC(=O)[C@@H](CC(C)C)NC(=O)[C@H](CCN)NC2=O)[C@@H](C)O)NC(=O)[C@H](CCN)NC(=O)[C@H](C(C)C)NC1=O [Ex. 98] (I: Ac-YCV[Dab]E[dDab][hSer]VSWC-{NHCH(CH2OH)2} / II: [Dab]T[Dab][Dab][Dab][dL]L[Dab][Dab]T; disulfide I:2-I:11; amide I:5-II:N; lactam II:4-II:C) | 2 (≈ 0.829 µM) | 0.25 (≈ 0.104 µM) | 2 (≈ 0.829 µM) | 2 (≈ 0.829 µM) | 0.125 (≈ 0.0518 µM) | 4 (≈ 1.66 µM) | 0.25 (≈ 0.104 µM) | 0.25 (≈ 0.104 µM) | <1 | – | – | – | –
CC(=O)N[C@H](C(=O)N[C@H]1CCN(C)C(=O)CC[C@@H](C(=O)N[C@@H](CO)C(N)=O)NC(=O)[C@H](C(C)C)NC(=O)[C@H](CO)NC(=O)[C@H](Cc2c[nH]c3ccccc23)NC(=O)[C@H](CO)NC(=O)[C@@H](CCN)NC(=O)[C@H](CCC(=O)N[C@@H](CCN)C(=O)N[C@H](C(=O)N[C@@H](CN)C(=O)N[C@H]2CCNC(=O)[C@H]([C@@H](C)O)NC(=O)[C@H](CCN)NC(=O)[C@H](CCN)NC(=O)[C@H](CC(C)C)NC(=O)[C@@H](CC(C)C)NC(=O)[C@H](CCN)NC2=O)[C@@H](C)O)NC(=O)[C@H](CCN)NC(=O)[C@H](Cc2ccc(O)cc2)NC1=O)C(C)C [Ex. 303] | 0.5 (≈ 0.207 µM) | – | 1 (≈ 0.413 µM) | 1 (≈ 0.413 µM) | – | 1 (≈ 0.413 µM) | – | – | <1 | 0.25 | 0.0625 | 0.0625 | 0.25
CC(C)C[C@@H]1NC(=O)[C@@H](CC(C)C)NC(=O)[C@H](CCN)NC(=O)[C@@H](NC(=O)[C@H](CN)NC(=O)[C@@H](NC(=O)[C@H](CCN)NC(=O)CC[C@@H]2NC(=O)[C@H](CN)NC(=O)[C@H](Cc3ccc(O)cc3)NC(=O)[C@@H](NC(=O)[C@@H](NC(=O)[C@@H]3CCC(=O)N3)C(C)C)CSSC[C@@H](C(=O)N[C@H](CO)[C@@H](C)O)NC(=O)[C@H](C(C)(C)C)NC(=O)[C@H](CO)NC(=O)[C@H](Cc3c[nH]c4ccccc34)NC(=O)[C@H]([C@@H](C)O)NC(=O)[C@@H](CCN)NC2=O)[C@@H](C)O)CCNC(=O)[C@H]([C@@H](C)O)NC(=O)[C@H](CCN)NC(=O)[C@H](CCN)NC1=O [Ex. 232] (I: [pGlu]VCY[Dap]E[dDab]TWS[Tle]C[Thr(ol)] / II: [Dab]T[Dap][Dab][Dab][dL]L[Dab][Dab]T; disulfide I:3-I:12; amide I:6-II:N; lactam II:4-II:C) | 0.0625 (≈ 0.0252 µM) | 0.0625 (≈ 0.0252 µM) | 0.125 (≈ 0.0503 µM) | 0.0625 (≈ 0.0252 µM) | 0.0625 (≈ 0.0252 µM) | 0.125 (≈ 0.0503 µM) | 0.125 (≈ 0.0503 µM) | 0.125 (≈ 0.0503 µM) | <1 | – | – | – | –
